Experimental data taken from patent US9962113B2, “Sensor for measuring the activity of beta-pancreatic cells or of islets of langerhans, manufacture and use of such a sensor” (UNIVERSITE DE BORDEAUX 1, priority 2010, dated 2018).
Where no end group is shown, it is not given here.

Tested on: β-pancreatic cells
Assay: Electrical signals (action potentials) of β-pancreatic cells in culture on the microelectrode sensor of FIG. 1
Type: cell-based
Experimental: In the example embodiment shown in FIG. 1, the sensor 2 includes a set of 60 microelectrodes distributed over 1 mm^2. The microelectrodes 21 have a disk shape 10 μm in diameter. The sensor 2 also includes β-pancreatic cells 23 in culture on the set of 60 microelectrodes 21. Laboratory tests have been conducted on the sensor 2 of FIG. 1. The first line of FIG. 2 specifies the times at which glucose is present at 20 mM, i.e. from 0 to 50 min. The second line specifies the times at which diazoxide is present at 200 μM, i.e. from around 13 to 16 min and around 27 to 35 min. […] An action potential waveform is visible at the dotted vertical line. The first line of FIG. 4 specifies the time at which the β-pancreatic cells 23 of the sensor 2 are placed in contact with the incretin hormone GLP-1, shown by a vertical arrow.

| Compound | reversibility of the diazoxide effect on electrical activation (FIG. 2, after removal of diazoxide, glucose 20 mM alone) | physiological activity (action potentials) of the β-pancreatic cells of the sensor in the presence of diazoxide (FIG. 2, diazoxide 200 μM (around 13 to 16 min and 27 to 35 min) with glucose 20 mM) | time after GLP-1 injection until electrical activation increases (FIG. 4) | electrical activation (action potentials) of the β-pancreatic cells after GLP-1 (FIG. 4, after injection of the incretin hormone GLP-1) |
| --- | --- | --- | --- | --- |
| CC1=NS(=O)(=O)c2cc(Cl)ccc2N1 [diazoxide] | not definitive | basal physiological activity | – | – |
| GLP-1: incretin hormone, a physiological amplifier of the glucose response (HAEGTFTSDVSSYLEGQAAKEFIAWLVKGR; ends and bridges not checked; UniProt P01275 98-127, looked up) | – | – | twenty | increases significantly |
